From US8609852B2, “Thiazolyl mGluR5 antagonists and methods for their use” (Merck Sharp & Dohme Corp., priority 2004, dated 2013)
Counter-ions that a name gives are not always drawn.

Key:
[1] = molecular target: metabotropic glutamate receptor subtype 5 (Rattus norvegicus (Rat), UniProt P31424); experiment: [3H]-mGluR5 Antagonist Binding to Rodent Brain Membranes
Experimental: In accordance with Anderson J J, Rao S P, Rowe B, Giracello D R, Holtz G, Chapman D F, Tehrani L, Bradbury M J, Cosford N D, Varney M A, [^3H]Methoxymethyl-3-[(2-methyl-1,3-thiazol-4-yl)ethynyl]pyridine binding to metabotropic glutamate receptor subtype 5 in rodent brain: in vitro and in vivo characterization. J Pharmacol Exp Ther. 2002 December; 303 (3):1044-51, membranes were prepared (as described in Ransom R W and Stec N L (1988) Cooperative modulation of [^3H]MK-801 binding to the N-methyl-D-aspartate receptor-ion channel complex by L-glutamate, glycine, and polyamines. J Neurochem 51:830-836) using whole rat brain, or mGlu5^+/+ or mGlu5^−/− whole mouse brain.
Binding assays were performed as described in Schaffhauser H, Richards J G, Cartmell J, Chaboz S, Kemp J A, Klingelschmidt A, Messer J, Stadler H, Woltering T and Mutel V (1998) In vitro binding characteristics of a new selective group II metabotropic glutamate receptor radioligand, [^3H]LY354740, in rat brain. Mol Pharmacol 53:228-233) at room temperature with slight modifications. Briefly, membranes were thawed and washed once with assay buffer (50 mM HEPES, 2 mM MgCl2, pH 7.4), followed by centrifugation at 40,000×g for 20 min. The pellet was resuspended in assay buffer and briefly homogenized with a Polytron.
For protein linearity experiments, increasing concentrations of membrane protein were added to 96-well plates in triplicate and binding was initiated by addition of 20 nM [^3H]methoxymethyl-3-[(2-methyl-1,3-thiazol-4-yl)ethynyl]pyridine. The assay was incubated for 2 h and non-specific binding was determined using 10 μM MPEP. The binding was terminated by rapid filtration through glass-fiber filters (Unifilter-96 GF/B plate, Packard) using a 96-well plate Brandel cell harvester. Following addition of scintillant, the radioactivity was determined by liquid scintillation spectrometry. Protein measurements were performed by BioRad-DC Protein assay using bovine serum albumin as the standard.
Saturation binding experiments were performed in triplicate with increasing concentrations of [^3H]methoxymethyl-3-[(2-methyl-1,3-thiazol-4-yl)ethynyl]pyridine (1 pM to 100 nM). The time course of association was measured by the addition of 10 nM [^3H]methoxymethyl-3-[(2-methyl-1,3-thiazol-4-yl)ethynyl]pyridine to the membranes at different time points (0-240 min), followed by filtration. Dissociation was measured by the addition of 100 μM unlabeled methoxymethyl-3-[(2-methyl-1,3-thiazol-4-yl)ethynyl]pyridine at different time points to membranes previously incubated for 3 h with 10 nM [^3H]methoxymethyl-3-[(2-methyl-1,3-thiazol-4-yl)ethynyl]pyridine. For competition experiments, 100 μg membrane protein and 10 nM [^3H]methoxymethyl-3-[(2-methyl-1,3-thiazol-4-yl)ethynyl]pyridine was added to wells containing increasing concentration of the test compound in duplicate (methoxymethyl-3-[(2-methyl-1,3-thiazol-4-yl)ethynyl]pyridine or MPEP). [^3H]-3-Methoxy-5-(pyridin-2-ylethynyl)pyridine may also be used as the radioligand in the procedure described above. (See, Cosford, N. D. P.; Roppe, J.; Tehrani, L.; Seiders, T. J.; Schweiger, E. J. et al. [3H]-Methoxymethyl-MTEP and [3H]-methoxy-PEPy): Potent and selective radioligands for the Metabotropic Glutamate Subtype 5 (mGlu5) Receptor. Bioorg. Med. Chem. Lett. 2003, 13, 351-354.)

[2] = molecular target: hmGluR5a receptor (Homo sapiens (Human), UniProt P41594); experiment: Calcium Flux Assay; type: cell-based; conditions: hmGluR5a/L38-20 cells, glutamate-evoked [Ca2+]i
Experimental: The activity of compounds was examined against the hmGluR5a receptor stably expressed in mouse fibroblast Ltk− cells (the hmGluR5a/L38-20 cell line). See generally Daggett et al., Neuropharmacology 34:871-886 (1995). Receptor activity was detected by changes in intracellular calcium ([Ca^2+]i) measured using the fluorescent calcium-sensitive dye, fura-2. hmGluR5a/L38-20 cells were plated onto 96-well plates, and loaded with 3 µM fura-2 for 1 h. Unincorporated dye was washed from the cells, and the cell plate was transferred to a custom-built 96-channel fluorimeter (SIBIA-SAIC, La Jolla, Calif.) which is integrated into a fully automated plate handling and liquid delivery system. Cells were excited at 350 and 385 nm with a xenon source combined with optical filters. Emitted light was collected from the sample through a dichroic mirror and a 510 nm interference filter and directed into a cooled CCD camera (Princeton Instruments). Image pairs were captured approximately every 1 s, and ratio images were generated after background subtraction. After a basal reading of 20 s, an EC80 concentration of glutamate ([…]) was added to the well, and the response evaluated for another 60 s. The glutamate-evoked increase in [Ca^2+]i in the presence of the screening compound was compared to the response of glutamate alone (the positive control).

Sequence of metabotropic glutamate receptor subtype 5 (P31424 21-1203): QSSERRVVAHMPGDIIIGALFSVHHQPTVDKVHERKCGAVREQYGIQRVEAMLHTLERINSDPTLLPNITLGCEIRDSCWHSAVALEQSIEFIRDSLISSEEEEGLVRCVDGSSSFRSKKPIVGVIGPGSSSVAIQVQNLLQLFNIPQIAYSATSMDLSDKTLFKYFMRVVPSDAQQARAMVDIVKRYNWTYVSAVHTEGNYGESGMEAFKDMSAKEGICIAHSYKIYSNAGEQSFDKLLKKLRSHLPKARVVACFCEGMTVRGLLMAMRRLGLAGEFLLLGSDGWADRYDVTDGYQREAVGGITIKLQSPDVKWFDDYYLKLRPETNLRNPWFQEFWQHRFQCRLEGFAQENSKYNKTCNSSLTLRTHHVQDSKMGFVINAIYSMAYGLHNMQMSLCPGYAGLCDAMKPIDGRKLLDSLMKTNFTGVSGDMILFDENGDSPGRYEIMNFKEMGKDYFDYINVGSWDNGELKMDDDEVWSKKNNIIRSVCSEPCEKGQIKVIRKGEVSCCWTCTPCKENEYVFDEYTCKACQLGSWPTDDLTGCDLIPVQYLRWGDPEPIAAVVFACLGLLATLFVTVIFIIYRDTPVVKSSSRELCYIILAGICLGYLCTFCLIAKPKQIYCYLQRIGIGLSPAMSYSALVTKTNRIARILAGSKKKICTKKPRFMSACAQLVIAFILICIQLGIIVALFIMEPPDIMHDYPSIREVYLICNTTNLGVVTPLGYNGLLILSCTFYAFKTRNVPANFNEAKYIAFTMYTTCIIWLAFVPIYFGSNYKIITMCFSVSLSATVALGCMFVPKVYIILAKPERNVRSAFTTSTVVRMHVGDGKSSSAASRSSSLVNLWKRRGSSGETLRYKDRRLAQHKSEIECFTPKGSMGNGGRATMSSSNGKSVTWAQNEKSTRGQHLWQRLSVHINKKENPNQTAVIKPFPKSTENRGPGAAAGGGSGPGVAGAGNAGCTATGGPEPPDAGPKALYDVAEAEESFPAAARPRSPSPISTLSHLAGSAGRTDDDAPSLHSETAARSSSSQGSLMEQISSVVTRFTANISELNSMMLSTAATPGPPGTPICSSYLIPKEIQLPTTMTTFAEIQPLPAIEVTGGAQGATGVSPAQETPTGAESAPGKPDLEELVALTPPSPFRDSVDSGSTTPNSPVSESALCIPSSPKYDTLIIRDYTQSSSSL
Sequence of hmGluR5a receptor (P41594 other isoform, or with tags, fused parts or gaps): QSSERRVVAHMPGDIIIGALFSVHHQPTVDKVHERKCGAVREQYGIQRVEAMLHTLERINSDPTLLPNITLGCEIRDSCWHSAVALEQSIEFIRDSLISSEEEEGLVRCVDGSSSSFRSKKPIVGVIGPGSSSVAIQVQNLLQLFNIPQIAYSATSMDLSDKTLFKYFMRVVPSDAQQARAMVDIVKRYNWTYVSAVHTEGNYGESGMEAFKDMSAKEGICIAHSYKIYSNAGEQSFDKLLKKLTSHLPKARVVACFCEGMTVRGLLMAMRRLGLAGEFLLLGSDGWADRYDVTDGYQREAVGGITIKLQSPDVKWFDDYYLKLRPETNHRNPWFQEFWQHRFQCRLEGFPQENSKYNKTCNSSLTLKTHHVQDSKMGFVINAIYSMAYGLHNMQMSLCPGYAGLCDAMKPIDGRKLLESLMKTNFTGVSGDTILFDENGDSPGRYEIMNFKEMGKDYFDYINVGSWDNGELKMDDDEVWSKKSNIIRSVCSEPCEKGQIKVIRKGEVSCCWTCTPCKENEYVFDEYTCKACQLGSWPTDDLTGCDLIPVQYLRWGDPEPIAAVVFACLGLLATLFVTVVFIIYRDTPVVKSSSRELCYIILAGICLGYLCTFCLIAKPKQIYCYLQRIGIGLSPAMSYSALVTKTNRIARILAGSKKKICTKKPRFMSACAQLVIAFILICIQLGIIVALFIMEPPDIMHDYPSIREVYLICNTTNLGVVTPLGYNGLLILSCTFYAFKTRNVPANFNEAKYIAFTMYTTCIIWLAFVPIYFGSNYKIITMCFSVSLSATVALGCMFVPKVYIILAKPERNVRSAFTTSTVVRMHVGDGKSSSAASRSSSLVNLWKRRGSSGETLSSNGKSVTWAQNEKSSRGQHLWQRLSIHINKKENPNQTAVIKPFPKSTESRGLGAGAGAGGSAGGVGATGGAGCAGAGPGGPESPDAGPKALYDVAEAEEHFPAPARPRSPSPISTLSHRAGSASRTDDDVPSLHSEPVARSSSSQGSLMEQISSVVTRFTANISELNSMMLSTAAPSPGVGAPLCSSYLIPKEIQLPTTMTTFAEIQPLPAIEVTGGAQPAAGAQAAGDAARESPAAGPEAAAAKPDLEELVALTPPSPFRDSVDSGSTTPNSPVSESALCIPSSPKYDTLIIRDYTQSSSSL

| SMILES | Ki [1] [nM] | IC50 [2] [nM] |
| --- | --- | --- |
| Cc1nc(C#Cc2ccc(-c3ccccc3F)nc2)cs1 [Example 2, 2-(2-fluorophenyl)-5-[(2-methyl-1,3-thiazol-4-yl)ethynyl]pyridine] | 2 | 1 |
| Cc1nc(C#Cc2ccc(-c3cccc(F)c3)nc2)cs1 [Example 3, 2-(3-fluorophenyl)-5-[(2-methyl-1,3-thiazol-4-yl)ethynyl]pyridine] | 2.7 | 0.9 |
| Cc1nc(C#Cc2ccc(-c3ccccc3C#N)nc2)cs1 [Example 4, 2-{5-[(2-methyl-1,3-thiazol-4-yl)ethynyl]pyridin-2-yl}benzonitrile] | – | 2.2 |
| Cc1nc(C#Cc2ccc(-c3ccccc3C)nc2)cs1 [Example 5, 2-(2-methylphenyl)-5-[(2-methyl-1,3-thiazol-4-yl)ethynyl]pyridine] | 1 | 6.3 |
| COc1ccc(F)cc1-c1ccc(C#Cc2csc(C)n2)cn1 [Example 6, 2-(5-fluoro-2-methoxyphenyl)-5-[(2-methyl-1,3-thiazol-4-yl)ethynyl]pyridine] | 1.2 | 4.4 |
| Cc1nc(C#Cc2ccc(-c3ccccc3Cl)nc2)cs1 [Example 7, 2-(2-chlorophenyl)-5-[(2-methyl-1,3-thiazol-4-yl)ethynyl]pyridine] | 0.7 | 1.1 |
| COc1ccccc1-c1ccc(C#Cc2csc(C)n2)cn1 [Example 8, 2-(2-methoxyphenyl)-5-[(2-methyl-1,3-thiazol-4-yl)ethynyl]pyridine] | 0.9 | 1 |
| Cc1nc(C#Cc2ccc(-c3ccc(F)cc3C)nc2)cs1 [Example 9, 2-(4-fluoro-2-methylphenyl)-5-[(2-methyl-1,3-thiazol-4-yl)ethynyl]pyridinium trifluoroacetate] | – | 1.1 |
| COc1c(F)cc(F)cc1-c1ccc(C#Cc2csc(C)n2)cn1 [Example 10, 2-(3,5-difluoro-2-methoxyphenyl)-5-[(2-methyl-1,3-thiazol-4-yl)ethynyl]pyridinium trifluoroacetate] | – | 0.7 |
| COc1cc(F)ccc1-c1ccc(C#Cc2csc(C)n2)cn1 [Example 11, 2-(4-fluoro-2-methoxyphenyl)-5-[(2-methyl-1,3-thiazol-4-yl)ethynyl]pyridinium trifluoroacetate] | – | 1.3 |
| Cc1nc(C#Cc2ccc(-c3cc(F)ccc3C)nc2)cs1 [Example 12, 2-(5-fluoro-2-methylphenyl)-5-[(2-methyl-1,3-thiazol-4-yl)ethynyl]pyridinium trifluoroacetate] | 1.1 | 0.6 |
| Cc1nc(C#Cc2cnc(-c3ccccc3C)nc2)cs1 [Example 13, 2-(2-methylphenyl)-5-[(2-methyl-1,3-thiazol-4-yl)ethynyl]pyrimidine] | 0.6 | 0.6 |
| CSc1ccccc1-c1ncc(C#Cc2csc(C)n2)cn1 [Example 14, 5-[(2-methyl-1,3-thiazol-4-yl)ethynyl]-2-[2-(methylthio)phenyl]pyrimidine] | 7.5 | 0.8 |
| Cc1nc(C#Cc2cnc(-c3ccccc3Cl)nc2)cs1 [Example 15, 2-(2-chlorophenyl)-5-[(2-methyl-1,3-thiazol-4-yl)ethynyl]pyrimidine] | 2.6 | 1 |
| Cc1nc(C#Cc2cnc(-c3cccc(C)c3C)nc2)cs1 [Example 16, 2-(2,3-dimethylphenyl)-5-[(2-methyl-1,3-thiazol-4-yl)ethynyl]pyrimidine] | 8.6 | 0.4 |
| Cc1nc(C#Cc2ccc(-n3ccc4cccnc43)nc2)cs1 [Example 17, 1-{5-[(2-methyl-1,3-thiazol-4-yl)ethynyl]pyridin-2-yl}-1H-pyrrolo[2,3-b]pyridine] | 3.8 | 0.4 |
| Cc1nc(C#Cc2ccc(N3CCCCC3)nc2)cs1 [Example 19, 5-[(2-methyl-1,3-thiazol-4-yl)ethynyl]-2-piperidin-1-ylpyridine] | 2.8 | 1.8 |

| SMILES | Ki [1] [nM] | IC50 [2] [nM] |
| --- | --- | --- |
| Cc1nc(C#Cc2ccc(N3CCCC3C)nc2)cs1 (stereo not drawn) [Example 20, 2-(2-methylpyrrolidin-1-yl)-5-[(2-methyl-1,3-thiazol-4-yl)ethynyl]pyridine] | 1.4 | 1 |
| Cc1nc(C#Cc2cnc(N3CCCC3C)nc2)cs1 (stereo not drawn) [Example 21, 2-(2-methylpyrrolidin-1-yl)-5-[(2-methyl-1,3-thiazol-4-yl)ethynyl]pyrimidine] | 1.5 | 1.5 |
| Cc1nc(C#Cc2cnc(NC(C)(C)C)nc2)cs1 [Example 22, N-(tert-butyl)-5-[(2-methyl-1,3-thiazol-4-yl)ethynyl]pyrimidin-2-amine] | 0.9 | 1.2 |
| Cc1nc(C#Cc2cnc(N3CCCCC3)nc2)cs1 [Example 24, 5-[(2-methyl-1,3-thiazol-4-yl)ethynyl]-2-piperidin-1-ylpyrimidine] | 2.6 | 0.3 |
| Cc1nc(C#Cc2cnc(OC(C)C)nc2)cs1 [Example 25, 2-isopropoxy-5-[(2-methyl-1,3-thiazol-4-yl)ethynyl]pyrimidine] | 9 | 1.4 |
| Cc1nc(C#Cc2ccc(OC(C)C)nc2)cs1 [Example 26, 2-isopropoxy-5-[(2-methyl-1,3-thiazol-4-yl)ethynyl]pyridinium trifluoroacetate] | 2 | 0.1 |
| Cc1nc(C#Cc2ccc(OC(C)(C)C)nc2)cs1 [Example 27, 2-tert-butoxy-5-[(2-methyl-1,3-thiazol-4-yl)ethynyl]pyridine] | 1 | 1.4 |
| Cc1nc(C#Cc2ccc(SC(C)(C)C)nc2)cs1 [Example 28, 2-(tert-butylthio)-5-[(2-methyl-1,3-thiazol-4-yl)ethynyl]pyridine] | 0.9 | 1.7 |
| Cc1nc(C#Cc2cnc(SC(C)(C)C)nc2)cs1 [Example 29, 2-(tert-butylthio)-5-[(2-methyl-1,3-thiazol-4-yl)ethynyl]pyrimidine] | 10 | 0.5 |
| Cc1nc(C#Cc2ccc(C3CCCCC3)nc2)cs1 [Example 30, 2-cyclohexyl-5-[(2-methyl-1,3-thiazol-4-yl)ethynyl]pyridine] | 2.3 | 2.2 |
| Cc1nc(C#Cc2ccc(C(C)(C)C)nc2)cs1 [Example 31, 2-tert-butyl-5-[(2-methyl-1,3-thiazol-4-yl)ethynyl]pyridine] | 12.2 | 2.9 |
| Cc1nc(C#Cc2cnc(C3CCCCC3)nc2)cs1 [Example 32, 2-cyclohexyl-5-[(2-methyl-1,3-thiazol-4-yl)ethynyl]pyrimidine] | 4.8 | 1 |
| Cc1nc(C#Cc2ccc(-c3ccc(F)cc3F)nc2)cs1 [Example 33] | 7 | 19 |
| Cc1cc(C#N)cc(-c2ccc(C#Cc3csc(C)n3)cn2)c1 [Example 34] | 15 | 18 |
| Cc1nc(C#Cc2ccc(-c3cccc(-n4cccn4)c3)nc2)cs1 [Example 87] | – | 2 |
| Cc1nc(C#Cc2cnc(-c3ccccc3F)nc2)cs1 [Example 106] | 6 | – |
